Source: PMC10482975 (Nature Communications, 2023)
Where two headings read alike, the source gives them in different places.

Legend:
M4 mAChR [1] = biological target: T1, M4 mAChR (Homo sapiens, UniProt P08173)
T1 sequence (P08173 1-479): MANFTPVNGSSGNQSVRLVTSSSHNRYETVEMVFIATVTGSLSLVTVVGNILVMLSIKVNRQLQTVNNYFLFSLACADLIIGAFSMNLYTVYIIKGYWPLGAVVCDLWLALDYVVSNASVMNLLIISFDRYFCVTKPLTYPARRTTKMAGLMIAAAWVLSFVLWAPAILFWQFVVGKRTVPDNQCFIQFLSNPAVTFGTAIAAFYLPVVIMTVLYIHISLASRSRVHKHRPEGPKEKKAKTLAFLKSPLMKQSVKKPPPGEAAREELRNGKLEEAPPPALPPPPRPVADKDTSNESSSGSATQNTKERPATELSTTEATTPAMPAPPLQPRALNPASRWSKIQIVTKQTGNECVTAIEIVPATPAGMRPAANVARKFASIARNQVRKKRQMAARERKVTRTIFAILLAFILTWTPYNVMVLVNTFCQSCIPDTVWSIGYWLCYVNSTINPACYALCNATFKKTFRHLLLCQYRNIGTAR

[2] = tested on: M4 mAChR knockout (KO) mice / M1 mAChR KO mice; conditions: cited from earlier work
M4 mAChR [3] = biological target: T1, M4 mAChR; experiment: biochemical; conditions: read-out: [3H]-NMS binding remaining (0 min = 100), MEAN, M4 mAChR; for remaining activity at 0.1 µM: 0.1 μM Xano alone; for remaining activity at 1 µM: 1 μM Xano alone; for remaining activity at 10 µM: 10 μM Xano alone

For `CCCCCCOc1nsnc1C1=CCCN(C)C1` [xanomeline], the “rebinding of [3H]-NMS (in words)” value (M4 mAChR [1]; 10 µM xanomeline alone) is listed as “prevented the rebinding”, the “[3H]-NMS dissociation (in words)” value (M4 mAChR [1]; 100 µM xanomeline alone) is listed as “slowed to the same extent” and the antipsychotic efficacy ([2]; M1 mAChR KO mice) is listed as “partially reduced”. For the same molecule, the antipsychotic efficacy ([2]; M4 mAChR knockout (KO) mice) was “completely abolished”, the remaining activity at 0.1 µM (M4 mAChR [3]; 0.5 h, 30 min) was 90.3% and the remaining activity at 1 µM (M4 mAChR [3]; 0.5 h, 30 min) was 87.3%. For the same molecule, the remaining activity at 100 µM (M4 mAChR [3]; 0.5 h, 10 μM Atropine + 100 μM Xanomeline, 30 min) was 85.1%, the remaining activity at 10 µM (M4 mAChR [3]; 0.5 h, 30 min) was 77.6% and the remaining activity at 100 µM (M4 mAChR [3]; 0.5 h, 100 μM Xano alone, 30 min) was 85.7%. It also gave a remaining activity at 0.1 µM (M4 mAChR [3]; 1 h, 60 min) of 94.4%, a remaining activity at 1 µM (M4 mAChR [3]; 1 h, 60 min) of 76.8% and a remaining activity at 100 µM (M4 mAChR [3]; 1 h, 10 μM Atropine + 100 μM Xanomeline, 60 min) of 69.6%. For the same molecule, the remaining activity at 10 µM (M4 mAChR [3]; 1 h, 60 min) was 61%, the remaining activity at 100 µM (M4 mAChR [3]; 1 h, 100 μM Xano alone, 60 min) was 73.5% and the remaining activity at 0.1 µM (M4 mAChR [3]; 1.5 h, 90 min) was 98.4%. It also gave a remaining activity at 1 µM (M4 mAChR [3]; 1.5 h, 90 min) of 74.4%, a remaining activity at 100 µM (M4 mAChR [3]; 1.5 h, 10 μM Atropine + 100 μM Xanomeline, 90 min) of 64.1% and a remaining activity at 10 µM (M4 mAChR [3]; 1.5 h, 90 min) of 50.9%. It also gave a remaining activity at 100 µM (M4 mAChR [3]; 1.5 h, 100 μM Xano alone, 90 min) of 62.6%, a remaining activity at 0.1 µM (M4 mAChR [3]; 2 h, 120 min) of 94.7% and a remaining activity at 1 µM (M4 mAChR [3]; 2 h, 120 min) of 64.9%. The remaining activity at 100 µM (M4 mAChR [3]; 2 h, 10 μM Atropine + 100 μM Xanomeline, 120 min) was 52.9%, the remaining activity at 100 µM (M4 mAChR [3]; 2 h, 100 μM Xano alone, 120 min) was 61.2% and the remaining activity at 0.1 µM (M4 mAChR [3]; 3 h, 180 min) was 92.1%. The remaining activity at 1 µM (M4 mAChR [3]; 3 h, 180 min) was 60.5%, the remaining activity at 10 µM (M4 mAChR [3]; 3 h, 180 min) was 32.7% and the remaining activity at 100 µM (M4 mAChR [3]; 3 h, 100 μM Xano alone, 180 min) was 46.6%. The remaining activity at 0.1 µM (M4 mAChR [3]; 5 h, 300 min) was 89.8%, the remaining activity at 1 µM (M4 mAChR [3]; 5 h, 300 min) was 57.5% and the remaining activity at 100 µM (M4 mAChR [3]; 5 h, 10 μM Atropine + 100 μM Xanomeline, 300 min) was 26.7%. For the same molecule, the remaining activity at 10 µM (M4 mAChR [3]; 5 h, 300 min) was 17.9% and the remaining activity at 100 µM (M4 mAChR [3]; 5 h, 100 μM Xano alone, 300 min) was 34.6%.
